Measured values: patent publication US11197836B2, “Topical vasoconstrictor preparations and methods for protecting cells during cancer chemotherapy and radiotherapy” (WISCONSIN ALUMNI RESEARCH FOUNDATION, priority 2005, dated 2021)

Legend:
human skin = assay: Human skin blanch 20 min after topical application, Example 6; format: in vivo; conditions: for Skin Blanch: 600 mM, human skin, 20 min after topical application
Experimental: (§1) The approximate amount of heat required to dissolve the vasoconstrictor salt in each diluent is indicated. Once diluted, samples were sealed and held at room temperature (22° C.) for 24 hours and then at 4° C. for 24 hours. Skin blanch induced by the topical formulation was assessed by applying freshly made, clear formulation to human skin shortly after initial mixing. Drug solutions were monitored for the appearance of precipitated material over a 48 hour observation period.

[1] = Dissolution and 24 hr solution status of vasoconstrictor salts in ethanol:PG:water diluents, Example 6; format: physicochemical
Experimental: Aliquots of each vasoconstrictor salt were weighed into glass test tubes. The volume of liquid necessary to achieve the indicated final drug concentration was then added.
as §1

human oral mucosa = test system: human oral mucosa
Experimental: A QTip wetted with the 1 mM solution was used to swab the lower lip and oral mucosa adjoining the lower lip during the first 20 min. […] Images were taken and then scored for the degree of mucosal blanch observed.

[2] = test system: radiation-induced oral mucositis; assay: Radiation-induced oral mucositis in hamster cheek pouch, Example 16; conditions: for mucosal pathology: hamster cheek pouch
[3] = test system: radiation-induced alopecia; conditions: 950 mM in 50:30:20 ethanol:PG:water, 10 day old rats
Experimental: At specific time points, digital images were recorded to show areas of skin blanch in the epi-treated rats.

human forearm skin = assay: Human forearm skin blanch and irritation with permeation enhancers, Example 8; format: in vivo; conditions: water
Experimental: In samples where a clear, norepinephrine-containing solution was achieved, an aliquot (˜100 μl) was applied to a ˜1 cm^2 area of human forearm skin using a cotton swab. The extent of skin blanch (i.e., dermal vasculature constriction) beneath the application site was visually scored over the 60 min following application.

[4] = 15:30:55 Ethanol:PG:water, 1000 mM
[5] = 20:30:50 Ethanol:PG:water, 1500 mM
[6] = 60:0:40 isopropanol:PG:water, 1500 mM
[7] = 10 mM topical, human lip and oral mucosa
[8] = 50:30:20 Ethanol:PG:water, 750 mM
[9] = 10:30:60 Ethanol:PG:water, 4000 mM
[10] = 10:30:60 Ethanol:PG:water, 5000 mM
[11] = 10:30:60 Ethanol:PG:water, 5500 mM
[12] = 12:30:58 Ethanol:PG:water, 3300 mM
[13] = 15:30:55 Ethanol:PG:water, 500 mM
[14] = 0:50:50 Ethanol:PG:water, 1800 mM
[15] = 0:80:20 Ethanol:PG:water, 1800 mM
[16] = 12:30:58 Ethanol:PG:water, 450 mM
[17] = 12:30:58 Ethanol:PG:water, 600 mM
[18] = 12:30:58 Ethanol:PG:water, 750 mM
[19] = 15:30:55 Ethanol:PG:water, 600 mM
[20] = 33:33:33 Ethanol:PG:water, 1800 mM
[21] = 40:25:35 Ethanol:PG:water, 600 mM
[22] = 40:30:30 Ethanol:PG:water, 300 mM
[23] = 44:18:33 Ethanol:PG:water, 600 mM
[24] = 45:25:30 Ethanol:PG:water, 300 mM
[25] = 45:25:30 Ethanol:PG:water, 600 mM
[26] = 50:20:30 Ethanol:PG:water, 600 mM
[27] = 50:25:25 Ethanol:PG:water, 600 mM
[28] = 50:30:20 Ethanol:PG:water, 600 mM
[29] = 55:20:25 Ethanol:PG:water, 600 mM
[30] = 60:20:20 Ethanol:PG:water, 600 mM

## COc1ccc(OC)c(C(O)C(C)N)c1 (stereo not drawn) [Methoxamine]
Human skin; applied to unbroken human skin
  potency to induce skin blanch: lacks the potency to adequately induce skin blanch

## CNC[C@H](O)c1ccc(O)c(O)c1.O=C(O)C(O)C(O)C(=O)O [Epi, L (−) epinephrine-tartrate]
[1]; [4]
  Heat required to completely dissolve vasoconstrictor salt (#secs. at 100° C.): 0 s
  Sample status after 24 hr at 4° C.: clear
  Sample status after 24 hr at ~22° C.: clear
[1]; [5]
  Heat required to completely dissolve vasoconstrictor salt (#secs. at 100° C.): 0 s
  Sample status after 24 hr at 4° C.: clear
  Sample status after 24 hr at ~22° C.: clear
[1]; [6]
  Heat required to completely dissolve vasoconstrictor salt (#secs. at 100° C.): 0 s
  Sample status after 24 hr at 4° C.: clear
  Sample status after 24 hr at ~22° C.: clear
Human oral mucosa; 1 mM solution swabbed on lower lip and oral mucosa during first 20 min, human
  blanch response: little blanch response
Human oral mucosa; 10 mM topical, four times over 50 min, human lip and oral mucosa
  duration of blanching: 1.5 to 2 h
Human oral mucosa; [7]
  time to clear blanching of lip and mucosa: ≤ 20 min
  time to normal color lip and mucosa: ≤ 3 h
[2]; hamster cheek pouch mucosal surface
  topical concentration completely protective against γ radiation-induced pathology: 400 μM
[2]; large excess doses combined with 24 min of irradiation (40 Gy)
  mucosal pathology: severe mucosal pathology
[2]; large excess doses without irradiation
  mucosal pathology: no discernible mucosal pathology

## CNC[C@H](O)c1ccc(O)c(O)c1.Cl (racemic) [Epi (±), (±) epinephrine-HCl]
[1]; [8]
  Heat required to completely dissolve vasoconstrictor salt (#secs. at 100° C.): 0 s
  Sample status after 24 hr at 4° C.: clear
  Sample status after 24 hr at ~22° C.: clear
[3]; by 120 min
  skin blanch in treated skin field: single blanched field
[3]; four applications, 7.5 Gy whole-body γ radiation
  coat protection on day 20: confluent area of protected coat

## CNC[C@H](O)c1cccc(O)c1.Cl [PhE, R (−) phenylephrine-HCl]
[1]; [9]
  Heat required to completely dissolve vasoconstrictor salt (#secs. at 100° C.): 12 s
  Sample status after 24 hr at 4° C.: precipitate
  Sample status after 24 hr at ~22° C.: precipitate
[1]; [10]
  Heat required to completely dissolve vasoconstrictor salt (#secs. at 100° C.): 12 s
  Sample status after 24 hr at 4° C.: precipitate
  Sample status after 24 hr at ~22° C.: precipitate
[1]; [11]
  Heat required to completely dissolve vasoconstrictor salt (#secs. at 100° C.): 16 s
  Sample status after 24 hr at 4° C.: precipitate
  Sample status after 24 hr at ~22° C.: precipitate
[1]; [12]
  Heat required to completely dissolve vasoconstrictor salt (#secs. at 100° C.): 8 s
  Sample status after 24 hr at 4° C.: precipitate
  Sample status after 24 hr at ~22° C.: precipitate
[1]; [13]
  Heat required to completely dissolve vasoconstrictor salt (#secs. at 100° C.): 8 s
  Sample status after 24 hr at 4° C.: precipitate
  Sample status after 24 hr at ~22° C.: clear

## NC[C@H](O)c1ccc(O)c(O)c1.O=C(O)C(O)C(O)C(=O)O [Nep, L (−) norepinephrine-tartrate]
[1]; [14]
  Heat required to completely dissolve vasoconstrictor salt (#secs. at 100° C.): 6 s
  Sample status after 24 hr at 4° C.: precipitate
  Sample status after 24 hr at ~22° C.: precipitate
[1]; [15]
  Heat required to completely dissolve vasoconstrictor salt (#secs. at 100° C.): 24 s
  Sample status after 24 hr at 4° C.: precipitate
  Sample status after 24 hr at ~22° C.: precipitate
[1]; [16]
  Heat required to completely dissolve vasoconstrictor salt (#secs. at 100° C.): 0 s
  Sample status after 24 hr at 4° C.: clear
  Sample status after 24 hr at ~22° C.: clear
[1]; [17]
  Heat required to completely dissolve vasoconstrictor salt (#secs. at 100° C.): 0 s
  Sample status after 24 hr at 4° C.: clear
  Sample status after 24 hr at ~22° C.: clear
[1]; [18]
  Heat required to completely dissolve vasoconstrictor salt (#secs. at 100° C.): 0 s
  Sample status after 24 hr at 4° C.: clear
  Sample status after 24 hr at ~22° C.: clear
[1]; [19]
  Heat required to completely dissolve vasoconstrictor salt (#secs. at 100° C.): 0 s
  Sample status after 24 hr at 4° C.: clear
  Sample status after 24 hr at ~22° C.: clear
[1]; [4]
  Heat required to completely dissolve vasoconstrictor salt (#secs. at 100° C.): 0 s
  Sample status after 24 hr at 4° C.: clear
  Sample status after 24 hr at ~22° C.: clear
[1]; [20]
  Heat required to completely dissolve vasoconstrictor salt (#secs. at 100° C.): 18 s
  Sample status after 24 hr at 4° C.: precipitate
  Sample status after 24 hr at ~22° C.: precipitate
[1]; [21]
  Heat required to completely dissolve vasoconstrictor salt (#secs. at 100° C.): 2 s
  Sample status after 24 hr at 4° C.: clear
  Sample status after 24 hr at ~22° C.: clear
[1]; [22]
  Heat required to completely dissolve vasoconstrictor salt (#secs. at 100° C.): 2 s
  Sample status after 24 hr at 4° C.: clear
  Sample status after 24 hr at ~22° C.: clear
[1]; [23]
  Heat required to completely dissolve vasoconstrictor salt (#secs. at 100° C.): 2 s
  Sample status after 24 hr at 4° C.: clear
  Sample status after 24 hr at ~22° C.: clear
[1]; [24]
  Heat required to completely dissolve vasoconstrictor salt (#secs. at 100° C.): 2 s
  Sample status after 24 hr at 4° C.: clear
  Sample status after 24 hr at ~22° C.: clear
[1]; [25]
  Heat required to completely dissolve vasoconstrictor salt (#secs. at 100° C.): 2 s
  Sample status after 24 hr at 4° C.: clear
  Sample status after 24 hr at ~22° C.: clear
[1]; [26]
  Heat required to completely dissolve vasoconstrictor salt (#secs. at 100° C.): 1 s
  Sample status after 24 hr at 4° C.: clear
  Sample status after 24 hr at ~22° C.: clear
[1]; [27]
  Heat required to completely dissolve vasoconstrictor salt (#secs. at 100° C.): 1 s
  Sample status after 24 hr at 4° C.: clear
  Sample status after 24 hr at ~22° C.: clear
[1]; [28]
  Heat required to completely dissolve vasoconstrictor salt (#secs. at 100° C.): 1 s
  Sample status after 24 hr at 4° C.: clear
  Sample status after 24 hr at ~22° C.: clear
[1]; [29]
  Heat required to completely dissolve vasoconstrictor salt (#secs. at 100° C.): 1 s
  Sample status after 24 hr at 4° C.: precipitate
  Sample status after 24 hr at ~22° C.: precipitate
[1]; [30]
  Heat required to completely dissolve vasoconstrictor salt (#secs. at 100° C.): 2 s
  Sample status after 24 hr at 4° C.: clear
  Sample status after 24 hr at ~22° C.: clear
Human skin; 55:20:25 Ethanol:PG:water
  Skin Blanch: +++++ (+++++ = 90-100% blanch)
Human skin; 60:20:20 Ethanol:PG:water
  Skin Blanch: +++++ (+++++ = 90-100% blanch)
Human forearm skin; 300 mM Nep
  Skin Irritation: No
Human forearm skin; 300 mM Nep, 0.8% SLS
  Skin Irritation: No
Human forearm skin; 300 mM Nep, 0.8% SLS, 20 min
  Skin Blanch: 0
Human forearm skin; 300 mM Nep, 20 min after topical application
  Skin Blanch: 0
Human forearm skin; 300 mM Nep, ethanol
  Skin Irritation: No
Human forearm skin; 300 mM Nep, ethanol, 0.8% SLS
  Skin Irritation: Slight
Human forearm skin; 300 mM Nep, ethanol, 5% Menthone
  Skin Irritation: Slight
Human forearm skin; 300 mM Nep, ethanol, PG
  Skin Irritation: No
Human forearm skin; 300 mM Nep, ethanol, PG, 0.3% SLS
  Skin Irritation: No
Human forearm skin; 300 mM Nep, ethanol, PG, 0.3% SLS, 5% Menthone
  Skin Irritation: Yes
Human forearm skin; 300 mM Nep, ethanol, PG, 0.3% SLS, 5% Menthone, 20 min
  Skin Blanch: +++++ (+++++ = 90-100% blanch)
Human forearm skin; 300 mM Nep, ethanol, PG, 5% Methone
  Skin Irritation: No
Human forearm skin; 300 mM Nep, ethanol, Transcutol
  Skin Irritation: No
Human forearm skin; 300 mM Nep, ethanol, Transcutol, 0.4% SLS
  Skin Irritation: No
Human forearm skin; 600 mM NEp, ethanol, PG
  Skin Irritation: No
Human forearm skin; 600 mM NEp, ethanol, PG, 20 min
  Skin Blanch: +++++ (+++++ = 90-100% blanch)
Human forearm skin; 750 mM NEp, ethanol, PG
  Skin Irritation: No
Human forearm skin; 750 mM NEp, ethanol, PG, 20 min
  Skin Blanch: +++++ (+++++ = 90-100% blanch)
